# In patent US7959954B2, “Pharmaceutical composition for treatment of diabetes and dyslipidemia” (Council of Scientific and Industrial Research, priority 2005, dated 2011):
# Marks after values point to notes of the source that are not given here.
# Key:
# dislipidemic hamster = experiment: Antidyslipidemic activity in dislipidemic (high fat diet) hamster model;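 further: male golden Syrian hamsters on high fat diet for 10 days, oral treatment days 4–10, non-fasted plasma sampled on day 10, compared with vehicle-treated high fat diet controls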
# Method: Test Models used for the Evaluation of the Antidyslipidemic Activity:
# Male golden Syrian Hamsters weighing 120-130 g were divided into dyslipidemic and dislipidemic plus drug treated groups of the eight animals in each groups were used. Feeding with high fat diet (supplied by NOVO—NORDISK, Dennmark, Cat produced Dyslipidemia. No-99122211). Dislipidemic hamsters had free access to HFD and water ad-libitum. throughout the experiment for ten days. The test sample was fed orally at a dose of 250 mg./kg. from day-4 to day-10 (7 days) in the HFD hamsters. Normal hamsters fed with HFD and given drug vehicle only, served as control animals. Body weight of each animal and diet intake of each animal group was recorded daily to check the effect of the drug on food intake and body weight of the animals. At the end of the experiment i.e. on day 10th, the blood of non fasted animals were withdrawn in two sets of tubes in which one set contains 120 μl NaF (4.5 mg./ml) and after 15 min. in cold, plasma was separated. Biochemical analysis of plasma with out NaF was performed on the same day for Triglycerides (TG) total Cholesterol (TC) HDL-Cholesterol using enzymatic diagnostic kits. Similarly the plasma containing NaF Glucose was assayed for glucose, glycerol and free Fatty acids (FFA) on Synchron CX-5. Clinical System Beckmann Coulter Instrument.
# [1] = tested on: sucrose challenged Streptozotocin induced diabetic rats; experiment: STZ-s model, sucrose challenged low dosed Streptozotocin induced diabetic rats; assay type: in vivo, Male albino rats of Sprague Dawley strain; settings: for STZ-s model % change 5 h / STZ-s model % change 24 h: dose 25 mg/kg
# Method: [formula] […] [B] (ii) STZ-s Procedure
# Male albino rats of Sprague Dawley strain of the body weight 160±20 g were selected for this study. Streptozotocin (Sigma, USA) was dissolved in 100 mM citrate buffer pH 4.5 and calculated amount of the fresh solution was injected to overnight fasted rats (45 mg./Kg.) intraperitonially. Blood was checked 48 hours later by glucosetrips and animals showing blood glucose values between 144 to 270 mg./dl. (8 to 15 mM) were included in the experiments and termed diabetic. The diabetic animals were divided into groups comprising 5 to 6 animals in each group. […] The animals of the control group were given an equal amount of 1.0% gum acacia. A sucrose load of the 2.5 g/Kg of the body weight was given after 30 minutes of the drug administration. After 30 minutes of the post sucrose load blood glucose level was again checked by glucostrips at 30, 60, 90, 120, 180, 240, 300 minutes and 24 hours respectively. […] The food but not the water was withheld from the cages during the experimentation. Comparing the AUC of experimental and control groups determined the percent of antihyperglycemic activity. Statistical comparison between groups was made by the Student's “t” test.
# STZ injected rats = experiment: STZ model, antihyperglycemic activity; assay type: in vivo, Sprague-Dauley [SD] strain male albino rats; settings: dose 100 mg/kg
# Method: Drug metformate was administered half an hour before glucose was given. […] Statistical significance was done by AUC-method. [B] (i) STZ-Model Procedure Sprague-Dauley [SD] strain male albino rats of body weight 160±20 g were taken for study. Animals in 3 cage were kept for 7 days under standard experimental conditions before the experiment. Animals were given standard rat-pellet diet and tap-water ad-libitum. Day ‘0’-Day before experiment, animals were kept for overnight starvation. […] USA] was injected intraperitoneally to all the starved animals at a dose of 60 mg/kg, dissolved in 100 m M citrate buffer, pH 4.5. Day ‘2’ rats remained as such in the same conditions. Food pellets were removed on the penultimate day at 5:00 P.M. in the evening and animals were kept on over night starvation. […] Blood was taken from tail of the rats by stab-techniques and the glucose level was estimated using “Advantage Glucometer” of Boehringer Mannheim Co, USA. […] Group-I was kept only for control [STZ-injection were given only]. Group II were treated with STZ+test samples. […] [formula] The extract/fraction/compounds found active were statistically analyzed to determine area under curve [AUC] by plotting the blood-glucose values against time. [B] (ii) STZ-s Procedure
# db/db mice [2] = experiment: Anti-dislipidemic activity (lipid profile) in db/db mice; assay type: in vivo, C57BL/KsBom-db mice; settings: dose 10 mg/Kg
# From the text: The db/db mouse is a well-characterized model of type-2 diabetes. The background for the db/db mouse is the C57BL/Ks strain. The major deficiency of the C57BL.Ks Bom-db mouse (db/db) is lack of a functional leptin receptor. This leads to defective leptin signaling and a complete lack of feedback from leptin. […] The db/db mouse develops NIDDM from around week 10. The disease is stable until week 20, where destruction of pancreatic β-cells can be recognized clinically as decreasing levels of plasma insulin and very severe […]. The db/db mouse has a maximal life span of 9-12 months. The advantage of using male mice for experimental purposes is that the fluctuations in plasma parameters are less than in females where the oestrogens cycle affects the clinical diabetes. The optimal age of db/db mice used for experiments will be from week-12 to 18 when they have developed NIDDM with diabetic dyslipidemia but still have functional β-cells in the pancreas. C57BL/KsBom-db mice 12-18 weeks, 40-50 g bred in the animal house of CDRI, Lucknow. 10 mice were housed in groups of (5 males and 5 females) were housed in groups of 5 individuals (same sex) in a room controlled for temperature (23±2.0° C.) and 12/12 hours light/dark cycle (light on 6.00AM.). Body weight was measured daily from day 1 to day 10. All animals had free access to fresh water and to normal chow except on the days of the post prandial protocol day 6 and during the overnight fast before the OGTT on day 10. The animals always had access to water during experimental periods. Blood glucose was checked every morning up till day 5. On day 6 post prandial protocol was employed, in this method blood glucose was checked at −0.5 h and 0 h. […] Blood glucose was measured at 0.0 min. post treatment, at this juncture glucose solution was given at a dose of 3 g./Kg. to all the groups including vehicle; the profile of blood glucose was checked at 30, 60, 90 and 120 minutes post glucose administration.
# db/db mice [3] = experiment: db/db mice antihyperglycemic activity (day 6 post prandial, day 10 OGTT); assay type: in vivo, C57BL/KsBom-db mice
# From the text: The db/db mouse is a well-characterized model of type-2 diabetes. The background for the db/db mouse is the C57BL/Ks strain. The major deficiency of the C57BL.Ks Bom-db mouse (db/db) is lack of a functional leptin receptor. This leads to defective leptin signaling and a complete lack of feedback from leptin. […] The db/db mouse develops NIDDM from around week 10. The disease is stable until week 20, where destruction of pancreatic β-cells can be recognized clinically as decreasing levels of plasma insulin and very severe […]. The db/db mouse has a maximal life span of 9-12 months. The advantage of using male mice for experimental purposes is that the fluctuations in plasma parameters are less than in females where the oestrogens cycle affects the clinical diabetes. The optimal age of db/db mice used for experiments will be from week-12 to 18 when they have developed NIDDM with diabetic dyslipidemia but still have functional β-cells in the pancreas. C57BL/KsBom-db mice 12-18 weeks, 40-50 g bred in the animal house of CDRI, Lucknow. 10 mice were housed in groups of (5 males and 5 females) were housed in groups of 5 individuals (same sex) in a room controlled for temperature (23±2.0° C.) and 12/12 hours light/dark cycle (light on 6.00AM.). Body weight was measured daily from day 1 to day 10. All animals had free access to fresh water and to normal chow except on the days of the post prandial protocol day 6 and during the overnight fast before the OGTT on day 10. The animals always had access to water during experimental periods. Blood glucose was checked every morning up till day 5. On day 6 post prandial protocol was employed, in this method blood glucose was checked at −0.5 h and 0 h. The test samples were given to the treatment group whereas vehicle received the only gum acacia (1.0%); the blood glucose was again checked at 1, 2, 3, 4 and 6 h posttest drug treatment. On day 8, blood was collected for serum insulin and lipid profile measurements and finally on day 10 an oral glucose tolerance test (OGTT) was performed after an overnight fasting. Blood glucose was measured at 0.0 min. post treatment, at this juncture glucose solution was given at a dose of 3 g./Kg. to all the groups including vehicle; the profile of blood glucose was checked at 30, 60, 90 and 120 minutes post glucose administration.
# Table-5-a represents the antihyperglycemic activity profile of 50% Aq.-EtOH extract and chloroform soluble fraction of the aq.-ethanolic extract and the standard drug Roziglitazone in hyperglycemic and hyperinsulinemic db/db mice. The results of the antidiabetic evaluations of the epicarp extracts/fractions/compounds in GLM and STZ models are given in table-1
compound,measurement,setting,value
"CC(C)OC(=O)C(C)(C)Oc1ccc(C(=O)c2ccc(Cl)cc2)cc1 [Fenofibrate, reference compound]",CHOL (Cholesterol),dislipidemic hamster; dose 108.24 mg/kg (300 μmole),−18* %
same,FFA (Free Fatty Acid),dislipidemic hamster; dose 108.24 mg/kg (300 μmole),−20* %
same,GLU (Glucose),dislipidemic hamster; dose 108.24 mg/kg (300 μmole),−22%
same,GLY (Glycerol),dislipidemic hamster; dose 108.24 mg/kg (300 μmole),−36** %
same,H/C (High density lipoprotein/cholesterol ratio),dislipidemic hamster; dose 108.24 mg/kg (300 μmole),+10%
same,TG (Triglycerides),dislipidemic hamster; dose 108.24 mg/kg (300 μmole),−42* %
CC(=O)O[C@@H]1C[C@H]2C(C)(C)C(=O)C=C[C@]2(C)[C@H]2CC[C@@]3(C)[C@H](c4ccoc4)OC(=O)[C@H]4O[C@]43[C@@]21C [Gedunin],activity in STZ-s model,"[1]; rat, in vivo",active
same,In STZ model % lowering,STZ injected rats,10.5%
same,In STZ model % lowering,STZ injected rats; listed as gedunin,promising activity
same,CHOL (Cholesterol),dislipidemic hamster; dose 25 mg/kg,+14%
same,FFA (Free Fatty Acid),dislipidemic hamster; dose 25 mg/kg,−36*** %
same,GLU (Glucose),dislipidemic hamster; dose 25 mg/kg,−28*** %
same,GLY (Glycerol),dislipidemic hamster; dose 25 mg/kg,−22%
same,H/C (High density lipoprotein/cholesterol ratio),dislipidemic hamster; dose 25 mg/kg,+11%
same,HDL (High Density Lipoprotein),dislipidemic hamster; dose 25 mg/kg,+27* %
same,TG (Triglycerides),dislipidemic hamster; dose 25 mg/kg,−47*** %
same,activity in antidislipidemic hamster model,"dislipidemic hamster; hamster, in vivo",active
"CN(C)C(=N)N=C(N)N [Metformin, reference compound]",STZ-s model % change 5 h,[1]; 5 h,−23.6** %
same,STZ-s model % change 24 h,[1]; 24 h,−26.5** %
same,% Antihyperglycemic activity 5 h,"[1]; dose 100 mg/Kg, 5 h",23.6* ** %
same,% Antihyperglycemic activity 24 h,"[1]; dose 100 mg/Kg, 24 h",26.5* * * %
CCCCCCCCCCCCCCCC(=O)O [Palmitic acid],% Activity in STZ-s model,[1]; dose 100 mg/Kg,−5.6%
CN(CCOc1ccc(CC2SC(=O)NC2=O)cc1)c1ccccn1 (stereo not shown) [Roziglitazone],Anti-dislipidemic activity CHOL,db/db mice [2],−5.5
same,Anti-dislipidemic activity HDL-C,db/db mice [2],+7.14
same,Anti-dislipidemic activity TG,db/db mice [2],−16.0
same,antidiabetic effect in db/db mice,db/db mice [3]; 10 mg/Kg,same order of activities
same,% Antihyperglycemic activity Day 6,"db/db mice [3]; dose 3.0 mg/Kg, Day 6",6.24* %
same,% Antihyperglycemic activity Day 10,"db/db mice [3]; dose 3.0 mg/Kg, Day 10",48.5* ** %
same,Antihyperglycemic activity Day 6,"db/db mice [3]; dose 10 mg/Kg, Day 6",−13.8 **
same,Antihyperglycemic activity Day 10,"db/db mice [3]; dose 10 mg/Kg, Day 10",−27.4 ***
CC[C@H](CC[C@@H](C)[C@H]1CC[C@H]2[C@@H]3CC=C4C[C@@H](O[C@@H]5O[C@H](CO)[C@@H](O)[C@H](O)[C@H]5O)CC[C@]4(C)[C@H]3CC[C@]12C)C(C)C [β-Sitosterol-β-D-glucoside],% Activity in STZ-s model,[1]; dose 100 mg/Kg,+10.1%
CC[C@H](CC[C@@H](C)[C@H]1CC[C@H]2[C@@H]3CC=C4C[C@@H](O)CC[C@]4(C)[C@H]3CC[C@]12C)C(C)C [β-Sitosterol],STZ-s model % change 5 h,[1]; 5 h,Nil
same,STZ-s model % change 24 h,[1]; 24 h,Nil
same,FFA (Free Fatty Acid),dislipidemic hamster; dose 25 mg/kg,−38*** %
same,GLY (Glycerol),dislipidemic hamster; dose 25 mg/kg,−14%
same,H/C (High density lipoprotein/cholesterol ratio),dislipidemic hamster; dose 25 mg/kg,−7%
same,HDL (High Density Lipoprotein),dislipidemic hamster; dose 25 mg/kg,−5%
same,TG (Triglycerides),dislipidemic hamster; dose 25 mg/kg,−7%
Photogedunin,% Activity in STZ-s model,[1]; dose 100 mg/Kg,+30.5%
Xyloccensin-E,STZ-s model % change 5 h,[1]; 5 h,−6.91%
same,STZ-s model % change 24 h,[1]; 24 h,−0.34%
same,CHOL (Cholesterol),dislipidemic hamster; dose 10 mg/kg,−18%
same,FFA (Free Fatty Acid),dislipidemic hamster; dose 10 mg/kg,−43* %
same,H/C (High density lipoprotein/cholesterol ratio),dislipidemic hamster; dose 10 mg/kg,−10%
same,HDL (High Density Lipoprotein),dislipidemic hamster; dose 10 mg/kg,−25%
same,TG (Triglycerides),dislipidemic hamster; dose 10 mg/kg,−22%
Xyloccensin-I,STZ-s model % change 5 h,[1]; 5 h,Nil
same,STZ-s model % change 24 h,[1]; 24 h,Nil
same,FFA (Free Fatty Acid),dislipidemic hamster; dose 25 mg/kg,−17%
same,GLY (Glycerol),dislipidemic hamster; dose 25 mg/kg,−5%
same,H/C (High density lipoprotein/cholesterol ratio),dislipidemic hamster; dose 25 mg/kg,−7%
same,HDL (High Density Lipoprotein),dislipidemic hamster; dose 25 mg/kg,−5%
